How the values were obtained:
[1] = system: corn (maize) cv. Pioneer 33G26; experiment: Test G safening on corn by naphthalic anhydride seed treatment, preemergence; format: in vivo, Zea mays
Excerpt: This test evaluated the safening of compounds of the invention on corn (maize; Zea mays L.) cv. ‘Pioneer 33G26’ by seed treatment with naphthalic anhydride (1,8-naphthalic anhydride). All corn seed had been first treated with fludioxonil and metaxyl applied at the manufacturer's recommended rate as per the Pioneer 33G26 label. Some of the corn seed were subsequently also treated with naphthalic anhydride as a 1% by weight seed dressing. The corn seed were planted in pots containing pasteurized Sassafras sandy loam soil, and then treatments were applied preemergence the same day. Treatments were applied by spraying the test compounds formulated in a non-phytotoxic solvent mixture, using a flat fan nozzle and a spray volume of 280 L/ha. The treatments were triply replicated and the results subsequently averaged. The pots were placed on a greenhouse bench using a complete randomized block design except for the first replicate, which was unrandomized. The plants were grown in the greenhouse and watered as needed with a dilute nutrient solution containing 200 ppm of N. Illumination was daylight supplemented by artificial sources to maintaining a photoperiod of 16 hours. The temperature was maintained at 28±2° C. during the day and 23±2° C. at night. The plant response was visually rated 25 days after treatment in comparison to untreated controls using a scale of 0 to 100, with 0 representing no effect and 100 representing complete plant death.

[2] = system: wild mustard; experiment: Test F pre-/postemergence herbicide test; format: in vivo, Sinapis arvensis
Excerpt: (§1) Seeds of plant species selected from annual blugrass (Poa annua L.), blackgrass (Alopecurus myosuroides Huds.), catchweed bedstraw (Gallium aparine L.), common chickweed (Stellaria media (L.) Vill./Cyr.), downy bromegrass (Bromus tectorum L.), green foxtail (Setaria viridis (L.) Beauv.), Italian ryegrass (Lolium multiflorum Lam.), kochia (Kochia scoparia (L.). Schrad.), lambsquarters (Chenopodium album L.), littleseed canarygrass (Phalaris minor Retz.), pigweed (Amaranthus retroflexus L.), Russian thistle (Salsola kali L. ssp. Ruthenica (Iljin) Soo), wild buckwheat (Polygonum convolvulus L.), wild mustard (Sinapis arvensis L.), wild oat (Avena fatua L.), windgrass (Apera spica-venti (L.) Beauv.), winter barley (Hordeum vulgare L.), and wheat (Triticum aestivum L.) were planted and treated preemergence with test chemicals formulated in a non-phytotoxic solvent mixture which included a surfactant.
(§2) At the same time, plants selected from these crop and weed species were treated with postemergence applications of some of the test chemicals formulated in the same manner. Plants ranged in height from 2 to 18 cm (1- to 4-leaf stage) for postemergence treatments. Treated plants and controls were maintained in a greenhouse for 12 to 14 days, after which time all species were compared to controls and visually evaluated. Plant response ratings, summarized in Table F, are based on a scale of 0 to 100 where 0 is no effect and 100 is complete control. A dash (-) response means no test result.

[3] = system: common chickweed; experiment: Test F pre-/postemergence herbicide test; format: in vivo, Stellaria media
Excerpt: as §1, §2

[4] = system: wheat; experiment: Test F pre-/postemergence herbicide test; format: in vivo, Triticum aestivum
Excerpt: as §1, §2

[5] = system: blackgrass; experiment: Test F pre-/postemergence herbicide test; format: in vivo, Alopecurus myosuroides
Excerpt: as §1, §2

[6] = system: winter barley; experiment: Test F pre-/postemergence herbicide test; format: in vivo, Hordeum vulgare
Excerpt: as §1, §2

[7] = system: lambsquarters; experiment: Test F pre-/postemergence herbicide test; format: in vivo, Chenopodium album
Excerpt: as §1, §2

[8] = system: pigweed; experiment: Test F pre-/postemergence herbicide test; format: in vivo, Amaranthus retroflexus
Excerpt: as §1, §2

[9] = system: wild oat; experiment: Test F pre-/postemergence herbicide test; format: in vivo, Avena fatua
Excerpt: as §1, §2

## CCNC(=O)c1ccc(F)c(NC(=O)c2cc(C(C)(C)C)nn2CC)c1 [Compound 2, 3-(1,1-dimethylethyl)-1-ethyl-N-[5-[(ethylamino)carbonyl]-2-fluorophenyl]-1H-pyrazole-5-carboxamide]
[1]; 62 g a.i./ha
  Response of corn, With 1% naphthalic anhydride seed treatment: 50
  Response of corn, Without naphthalic anhydride seed treatment: 65
[1]; 125 g a.i./ha
  Response of corn, With 1% naphthalic anhydride seed treatment: 55
  Response of corn, Without naphthalic anhydride seed treatment: 72
[1]; 250 g a.i./ha
  Response of corn, With 1% naphthalic anhydride seed treatment: 68
  Response of corn, Without naphthalic anhydride seed treatment: 78
[1]; 500 g a.i./ha
  Response of corn, With 1% naphthalic anhydride seed treatment: 72
  Response of corn, Without naphthalic anhydride seed treatment: 85

## CCn1nc(C(C)(C)C)cc1C(=O)Nc1cccc(C(N)=O)n1 [Compound 162, 6-[[[3-(1,1-dimethylethyl)-1-ethyl-1H-pyrazol-5-yl]carbonyl]amino]-2-pyridinecarboxamide]
[1]; 62 g a.i./ha
  Response of corn, With 1% naphthalic anhydride seed treatment: 0
  Response of corn, Without naphthalic anhydride seed treatment: 15
[1]; 125 g a.i./ha
  Response of corn, With 1% naphthalic anhydride seed treatment: 25
  Response of corn, Without naphthalic anhydride seed treatment: 30
[1]; 250 g a.i./ha
  Response of corn, With 1% naphthalic anhydride seed treatment: 60
  Response of corn, Without naphthalic anhydride seed treatment: 68
[1]; 500 g a.i./ha
  Response of corn, With 1% naphthalic anhydride seed treatment: 63
  Response of corn, Without naphthalic anhydride seed treatment: 85
[2]; Postemergence, 62 g ai/ha
  Plant response rating (0-100), Mustard, Wild: 60
[2]; Postemergence, 125 g ai/ha
  Plant response rating (0-100), Mustard, Wild: 80
[2]; Postemergence, 250 g ai/ha
  Plant response rating (0-100), Mustard, Wild: 100
[2]; Postemergence, 500 g ai/ha
  Plant response rating (0-100), Mustard, Wild: 100
[2]; Preemergence, 62 g ai/ha
  Plant response rating (0-100), Mustard, Wild: 80
[2]; Preemergence, 125 g ai/ha
  Plant response rating (0-100), Mustard, Wild: 80
[2]; Preemergence, 250 g ai/ha
  Plant response rating (0-100), Mustard, Wild: 100
[2]; Preemergence, 500 g ai/ha
  Plant response rating (0-100), Mustard, Wild: 100
[3]; Postemergence, 62 g ai/ha
  Plant response rating (0-100), Chickweed: 70
[3]; Postemergence, 125 g ai/ha
  Plant response rating (0-100), Chickweed: 80
[3]; Postemergence, 250 g ai/ha
  Plant response rating (0-100), Chickweed: 100
[3]; Postemergence, 500 g ai/ha
  Plant response rating (0-100), Chickweed: 100
[3]; Preemergence, 62 g ai/ha
  Plant response rating (0-100), Chickweed: 100
[3]; Preemergence, 125 g ai/ha
  Plant response rating (0-100), Chickweed: 100
[3]; Preemergence, 250 g ai/ha
  Plant response rating (0-100), Chickweed: 100
[3]; Preemergence, 500 g ai/ha
  Plant response rating (0-100), Chickweed: 100
[4]; Postemergence, 62 g ai/ha
  Plant response rating (0-100), Wheat: 20
[4]; Postemergence, 125 g ai/ha
  Plant response rating (0-100), Wheat: 40
[4]; Postemergence, 250 g ai/ha
  Plant response rating (0-100), Wheat: 50
[4]; Postemergence, 500 g ai/ha
  Plant response rating (0-100), Wheat: 70
[4]; Preemergence, 62 g ai/ha
  Plant response rating (0-100), Wheat: 60
[4]; Preemergence, 125 g ai/ha
  Plant response rating (0-100), Wheat: 100
[4]; Preemergence, 250 g ai/ha
  Plant response rating (0-100), Wheat: 100
[4]; Preemergence, 500 g ai/ha
  Plant response rating (0-100), Wheat: 100
[5]; Postemergence, 62 g ai/ha
  Plant response rating (0-100), Blackgrass: 70
[5]; Postemergence, 125 g ai/ha
  Plant response rating (0-100), Blackgrass: 80
[5]; Postemergence, 250 g ai/ha
  Plant response rating (0-100), Blackgrass: 100
[5]; Postemergence, 500 g ai/ha
  Plant response rating (0-100), Blackgrass: 100
[5]; Preemergence, 62 g ai/ha
  Plant response rating (0-100), Blackgrass: 90
[5]; Preemergence, 125 g ai/ha
  Plant response rating (0-100), Blackgrass: 100
[5]; Preemergence, 250 g ai/ha
  Plant response rating (0-100), Blackgrass: 100
[5]; Preemergence, 500 g ai/ha
  Plant response rating (0-100), Blackgrass: 100
[6]; Postemergence, 62 g ai/ha
  Plant response rating (0-100), Barley, Winter: 40
[6]; Postemergence, 125 g ai/ha
  Plant response rating (0-100), Barley, Winter: 50
[6]; Postemergence, 250 g ai/ha
  Plant response rating (0-100), Barley, Winter: 80
[6]; Postemergence, 500 g ai/ha
  Plant response rating (0-100), Barley, Winter: 80
[6]; Preemergence, 62 g ai/ha
  Plant response rating (0-100), Barley, Winter: 70
[6]; Preemergence, 125 g ai/ha
  Plant response rating (0-100), Barley, Winter: 100
[6]; Preemergence, 250 g ai/ha
  Plant response rating (0-100), Barley, Winter: 100
[6]; Preemergence, 500 g ai/ha
  Plant response rating (0-100), Barley, Winter: 100
[7]; Postemergence, 62 g ai/ha
  Plant response rating (0-100), Lambsquarters: 100
[7]; Postemergence, 125 g ai/ha
  Plant response rating (0-100), Lambsquarters: 100
[7]; Postemergence, 250 g ai/ha
  Plant response rating (0-100), Lambsquarters: 100
[7]; Postemergence, 500 g ai/ha
  Plant response rating (0-100), Lambsquarters: 100
[7]; Preemergence, 62 g ai/ha
  Plant response rating (0-100), Lambsquarters: 100
[7]; Preemergence, 125 g ai/ha
  Plant response rating (0-100), Lambsquarters: 100
[7]; Preemergence, 250 g ai/ha
  Plant response rating (0-100), Lambsquarters: 100
[7]; Preemergence, 500 g ai/ha
  Plant response rating (0-100), Lambsquarters: 100
[8]; Postemergence, 62 g ai/ha
  Plant response rating (0-100), Pigweed: 70
[8]; Postemergence, 125 g ai/ha
  Plant response rating (0-100), Pigweed: 90
[8]; Postemergence, 250 g ai/ha
  Plant response rating (0-100), Pigweed: 100
[8]; Postemergence, 500 g ai/ha
  Plant response rating (0-100), Pigweed: 100
[8]; Preemergence, 62 g ai/ha
  Plant response rating (0-100), Pigweed: 90
[8]; Preemergence, 125 g ai/ha
  Plant response rating (0-100), Pigweed: 100
[8]; Preemergence, 250 g ai/ha
  Plant response rating (0-100), Pigweed: 100
[8]; Preemergence, 500 g ai/ha
  Plant response rating (0-100), Pigweed: 100
[9]; Postemergence, 62 g ai/ha
  Plant response rating (0-100), Oat, Wild: 70
[9]; Postemergence, 125 g ai/ha
  Plant response rating (0-100), Oat, Wild: 80
[9]; Postemergence, 250 g ai/ha
  Plant response rating (0-100), Oat, Wild: 100
[9]; Postemergence, 500 g ai/ha
  Plant response rating (0-100), Oat, Wild: 100
[9]; Preemergence, 62 g ai/ha
  Plant response rating (0-100), Oat, Wild: 100
[9]; Preemergence, 125 g ai/ha
  Plant response rating (0-100), Oat, Wild: 100
[9]; Preemergence, 250 g ai/ha
  Plant response rating (0-100), Oat, Wild: 100
[9]; Preemergence, 500 g ai/ha
  Plant response rating (0-100), Oat, Wild: 100

## CCc1nn(C(C)(C)C)cc1C(=O)Nc1cc(C(=O)N(CC)CC)ccc1F [Compound 223]
[2]; Postemergence, 125 g ai/ha
  Plant response rating (0-100), Mustard, Wild: 65
[2]; Preemergence, 125 g ai/ha
  Plant response rating (0-100), Mustard, Wild: 100
[3]; Postemergence, 125 g ai/ha
  Plant response rating (0-100), Chickweed: 60
[3]; Preemergence, 125 g ai/ha
  Plant response rating (0-100), Chickweed: 100
[4]; Postemergence, 125 g ai/ha
  Plant response rating (0-100), Wheat: 0
[4]; Preemergence, 125 g ai/ha
  Plant response rating (0-100), Wheat: 0
[5]; Postemergence, 125 g ai/ha
  Plant response rating (0-100), Blackgrass: 60
[5]; Preemergence, 125 g ai/ha
  Plant response rating (0-100), Blackgrass: 70
[6]; Postemergence, 125 g ai/ha
  Plant response rating (0-100), Barley, Winter: 0
[6]; Preemergence, 125 g ai/ha
  Plant response rating (0-100), Barley, Winter: 25
[7]; Postemergence, 125 g ai/ha
  Plant response rating (0-100), Lambsquarters: 65
[7]; Preemergence, 125 g ai/ha
  Plant response rating (0-100), Lambsquarters: 95
[8]; Postemergence, 125 g ai/ha
  Plant response rating (0-100), Pigweed: 65
[8]; Preemergence, 125 g ai/ha
  Plant response rating (0-100), Pigweed: 100
[9]; Postemergence, 125 g ai/ha
  Plant response rating (0-100), Oat, Wild: 35
[9]; Preemergence, 125 g ai/ha
  Plant response rating (0-100), Oat, Wild: 70

Reference: patent publication US20060069132A1, “Azolecarboxamide herbicides” (priority 2004, published 2006)
